The assay has as its system immunoglobulin light chain protein WIL-FL T46L. Description: Differential scanning fluorimetry (thermal shift) assay. Particulars: Table A; temperature shift [Tm]compound-[Tm]vehicle; recombinant WIL-FL T46L. It is filed as binding.

As to `Cc1cc(OC[C@H](C)c2ccccc2)cn2nc(C(=O)NC3COC4(CCOC4)C3)nc12` (stereo partly drawn) [Compound 303], the DSF entry is “***** (>2.5° C.=*****)”.
On to `Cc1cc(OC[C@H](C)c2ccccc2)cn2nc(C(=O)N3CCC(Cc4ccc(C(=O)O)nc4)CC3)nc12` [Compound 304], for which the DSF entry is “***** (>2.5° C.=*****)”.
For `Cc1cc(OC[C@H](C)c2ccccc2)cn2nc(C(=O)NC3CCN(c4cccc(C(=O)O)n4)C3)nc12` (stereo partly drawn) [Compound 305], the DSF result was “***** (>2.5° C.=*****)”.
For `Cc1cc(OC[C@H](C)c2ccccc2)cn2nc(C(=O)NCC34COC(C3)C4)nc12` [Compound 306] the value was “***** (>2.5° C.=*****)”; for `Cc1cc(OC[C@H](C)c2ccccc2)cn2nc(C(=O)NC3CCN(c4cccc(C(=O)O)n4)CC3)nc12` [Compound 307], “***** (>2.5° C.=*****)”.
For `Cc1cc(OC[C@H](C)c2cccc(F)c2)cn2nc(C(=O)NC3CCN(c4ccnc(C(=O)O)c4)CC3)nc12` [Compound 308] the value was “***** (>2.5° C.=*****)”.
Turning to `Cc1cc(OC[C@H](C)c2cccc(F)c2)cn2nc(C(=O)N3CC[C@@](C)(O)C3)nc12` [Compound 309], the DSF result was “**** (>1.5-2.5° C.=****)”.
For `Cc1cc(OC[C@H](C)c2cccc(F)c2)cn2nc(C(=O)NC3CC4(C3)CC(N3CC5C(C3)C5C(=O)O)C4)nc12` (stereo partly drawn) [Compound 310], the DSF result is “***** (>2.5° C.=*****)”.
Take `Cc1cc(OC[C@H](C)c2ccccc2)cn2nc(C(=O)N3CCC4(CCN(c5cccc(C(=O)O)n5)C4)C3)nc12` (stereo partly drawn) [Compound 311]: the DSF entry is “***** (>2.5° C.=*****)”.
On to `Cc1cc(OC[C@H](C)c2ccccc2)cn2nc(C(=O)O)nc12` [Compound 312], for which the DSF result was “**** (>1.5-2.5° C.=****)”.
As to `Cc1cc(OC[C@H](C)c2ccccc2)cn2nc(C(=O)NC3CC4(CC(O)C4)C3)nc12` (stereo partly drawn) [Compound 313], the DSF result is “***** (>2.5° C.=*****)”.
As for `Cc1cc(OC[C@H](C)c2ccccc2)cn2nc(C(=O)NC3CC4(C3)CC(N3CC5C(C3)C5C(=O)O)C4)nc12` (stereo partly drawn) [Compound 314], the DSF result is on record as “***** (>2.5° C.=*****)”.
Regarding `Cc1cc(OC[C@H](C)c2ccccc2)cn2nc(C(=O)NC3CCC(C)(O)C3)nc12` (stereo partly drawn) [Compound 315], the DSF entry is reported as “**** (>1.5-2.5° C.=****)”.
As for `Cc1cc(OC[C@H](C)c2ccccc2)cn2nc(C(=O)N3CCC(C)(O)C3)nc12` (stereo partly drawn) [Compound 316], the DSF result is recorded as “**** (>1.5-2.5° C.=****)”.
As for `Cc1cc(OC[C@H](C)c2ccccc2)cn2nc(C(=O)NCC(C)(C)O)nc12` [Compound 317], the DSF entry was “***** (>2.5° C.=*****)”.
Regarding `Cc1cc(OC[C@H](C)c2ccccc2)cn2nc(C(=O)N[C@@H]3CC[C@H]3O)nc12` [Compound 319], the DSF entry is on record as “***** (>2.5° C.=*****)”.
Regarding `Cc1cc(OC[C@H](C)c2ccccc2)cn2nc(C(=O)NC3CCN(c4ccnc(C(=O)O)c4)CC3)nc12` [Compound 320], the DSF result is reported as “***** (>2.5° C.=*****)”.
For `Cc1cc(OC[C@H](C)c2ccccc2)cn2nc(C(=O)NC3CCN(c4ccnc(C(=O)O)c4)C3)nc12` (stereo partly drawn) [Compound 321], the DSF entry was “***** (>2.5° C.=*****)”.
As to `Cc1cc(OC[C@H](C)c2ccccc2)cn2nc(C(=O)N[C@H]3[C@H]4CN[C@@H]3C4)nc12` [Compound 322], the DSF entry is “***** (>2.5° C.=*****)”.
As for `Cc1cc(N2CC[C@](C)(c3ccccc3)C2)cn2nc(S(=O)(=O)NCC(C)(C)O)nc12` [Compound 323], the DSF result is listed as “***** (>2.5° C.=*****)”.
As to `CNS(=O)(=O)c1nc2c(C)cc(N3CC[C@](C)(c4ccccc4)C3)cn2n1` [Compound 324], the DSF entry was “***** (>2.5° C.=*****)”.
On to `Cc1cc(N2CC[C@](C)(c3ccccc3)C2)cn2nc(S(=O)(=O)NC3CCNCC3)nc12` [Compound 325], for which the DSF entry is “***** (>2.5° C.=*****)”.
The entry for `Cc1cc(N2CC[C@](C)(c3ccccc3)C2)cn2nc(S(=O)(=O)NC3CCNC3)nc12` (stereo partly drawn) [Compound 326] is “***** (>2.5° C.=*****)”.
Take `Cc1cc(N2CC[C@@](c3ccccc3)(C(F)F)C2)cn2nc(C(=O)NCC(C)(C)O)nc12` [Compound 327]: the DSF entry is given as “***** (>2.5° C.=*****)”.
Turning to `CNC(=O)c1nc2c(C)cc(N3CC[C@](c4ccccc4)(C(F)F)C3)cn2n1` [Compound 328], the DSF result is “**** (>1.5-2.5° C.=****)”.
For `CNC(=O)c1nc2c(C)cc(N3CC[C@@](c4ccccc4)(C(F)F)C3)cn2n1` [Compound 329] the value was “***** (>2.5° C.=*****)”; for `Cc1cc(N2CC[C@](c3ccccc3)(C(F)F)C2)cn2nc(C(=O)NC3CCN(c4ccnc(C(=O)O)c4)CC3)nc12` [Compound 330], “**** (>1.5-2.5° C.=****)”.
For `Cc1cc(N2CC[C@@](CO)(c3ccccc3)C2)cn2nc(C(=O)N3CC[C@@]4(CCN(c5cccc(C(=O)O)n5)C4)C3)nc12` [Compound 331] the value was “** (>0.5-1 °C =**)”; for `Cc1cc(N2CC[C@](CO)(c3ccccc3)C2)cn2nc(C(=O)N3CC[C@@]4(CCN(c5cccc(C(=O)O)n5)C4)C3)nc12` [Compound 332], “***** (>2.5° C.=*****)”; for `CNC(=O)c1nn2cc(N3CC[C@](C)(c4ccccc4)C3)cc(C)c2c1COC` [Compound 333], “***** (>2.5° C.=*****)”.
As to `C[C@]1(c2ccccc2)CCN(c2cc(CO)c3nc(C(=O)N4CCC5(CCN(c6ccnc(C(=O)O)c6)C5)C4)nn3c2)C1` (stereo partly drawn) [Compound 334], the DSF result was “***** (>2.5° C.=*****)”.
The entry for `CNC(=O)c1nc2c(CN)cc(N3CC[C@](C)(c4ccccc4)C3)cn2n1` [Compound 335] is “***** (>2.5° C.=*****)”; for `CNC(=O)c1nc2c(C(C)O)cc(N3CC[C@](C)(c4ccccc4)C3)cn2n1` (stereo partly drawn) [Compound 336] it is “***** (>2.5° C.=*****)”.
For `CNC(=O)c1nc2c(C(C)C)cc(N3CC[C@](C)(c4ccccc4)C3)cn2n1` [Compound 337], the DSF result is “**** (>1.5-2.5° C.=****)”.
For `CNC(=O)c1nc2c(C#N)cc(N3CC[C@](C)(c4ccccc4)C3)cn2n1` [Compound 338] the value was “* (0-0.5° C.=*)”; for `CCc1cc(N2CC[C@](C)(c3ccccc3)C2)cn2nc(C(=O)NC)nc12` [Compound 339], “***** (>2.5° C.=*****)”; for `CC(C)(O)c1cc(N2CC[C@](C)(c3ccccc3)C2)cn2nc(C(=O)NC3CCN(c4cccc(C(=O)O)n4)CC3)nc12` [Compound 340], “***** (>2.5° C.=*****)”.
With `CC(O)c1cc(N2CC[C@](C)(c3ccccc3)C2)cn2nc(C(=O)NC3CC4(C3)CC(N3CC5C(C3)C5C(=O)O)C4)nc12` (stereo partly drawn) [Compound 341], the DSF result is listed as “***** (>2.5° C.=*****)”.
Take `CC(O)c1cc(N2CC[C@](C)(c3ccccc3)C2)cn2nc(C(=O)NC3CCN(c4cccc(C(=O)O)n4)CC3)nc12` (stereo partly drawn) [Compound 342]: the DSF entry is “***** (>2.5° C.=*****)”.
`C[C@]1(c2ccccc2)CCN(c2cc(CO)c3nc(C(=O)N4CCC5(CCN(c6cccc(C(=O)O)n6)C5)C4)nn3c2)C1` (stereo partly drawn) [Compound 343]: the DSF entry is reported as “***** (>2.5° C.=*****)”.
For the molecule `Cc1nc(C2C3COC2(c2nc4c(CO)cc(N5CC[C@](C)(c6ccccc6)C5)cn4n2)C3)n[nH]1` (stereo partly drawn) [Compound 344], the DSF entry is “***** (>2.5° C.=*****)”.
For `C[C@]1(c2ccccc2)CCN(c2cc(CN)c3nc(C(=O)N4CC[C@@]5(CCN(c6cccc(C(=O)O)n6)C5)C4)nn3c2)C1` [Compound 345], the DSF entry was “***** (>2.5° C.=*****)”.

The values above are taken from patent publication US20260285857A1, “BICYCLIC AND HETEROCYCLIC AMIDE COMPOUNDS” (priority 2024, published 2026).
